# Data taken from US20240294465A1, “NOVEL ANTI-FIBROTIC DRUGS” (HELMHOLTZ ZENTRUM MUNCHEN - DEUTSCHES FORSCHUNGSZENTRUM FUR …, priority 2021, published 2024).
# Experiments:
# [1] = system: TGFβ1-induced fibulin-1 ECM deposition in primary human lung IPF-fibroblasts (phLFs); test: Assessing N23P activity in inhibiting ECM deposition in IPF-fibroblasts (fibulin-1 MFI); format: cell-based; conditions: Homo sapiens, 72 h, 10 μM, TGFβ1 1 ng/ml, MFI, three different IPF-phLFs (n=3)
# Protocol: phLFs were cultured in DMEM F-12 medium with 20% fetal bovine serum (FBS) and antibiotic supplement as mentioned above. Cells were seeded with 6000 cells/well in 384-well CellCarrier plates (Perkin Elmer, Cat #6007550). Following overnight incubation, cells were starved in serum-reduced medium (1% FBS with 0.1 mM 2-phosphoascorbate (Sigma, Cat #49752)) for 24 h. Afterwards, cells were treated with TGFβ1 (1 ng/ml) or vehicle, and additionally small molecules or appropriate vehicle controls were added. After 72 h of incubation, medium was changed for starving medium with 1 μg/mL AlexaFluor-488 fluorophore conjugated anti-collagen-type-5 antibodies (SantaCruz, Clone C-5, Cat #sc-166155 AF488), 0.66 μg/mL AlexaFluor-555 fluorophore conjugated anti-collagen-type-1 antibodies (Rockland, Cat #600-401-103-0.1), and 1 μg/mL AlexaFluor-637 fluorophore conjugated anti-fibulin 1 antibodies (SantaCruz, Clone C-5, Cat #sc-25281 AF647) and 1 μg/mL Hoechst H33342 (Sigma). Fluorescenceconjugation of the collagen type 1 antibody was done by using the AlexaFluor-555 Protein Labeling Kit (Invitrogen, Cat #A20174) according to manufacturer's instructions. Labeling efficacy was controlled by photometrical means.
# Following four hours of incubation, cells were washed three times with PBS and fixed with paraformaldehyde (PFA). For automated liquid handling in 384 well plates, an INTEGRA Assist Plus (INTEGRA, Zizers, Switzerland) equipped with an INTEGRA Viaflo 1I pipette (INTEGRA, Zizers, Switzerland, Cat #4642), 125 μL GripTips™ pipette tips (INTEGRA, Zizers, Switzerland, Cat #6464) and sterile reagent reservoirs (INTEGRA, Cat #4311) were applied. All automated pipetting steps with the INTEGRA Assist Plus were performed at 9.5 μL/s in order to ensure proper integrity and attachment of the deposited ECM to the culturing surface within the wells of the 384-well plates. During cell seeding the automated liquid handling was performed at 89.3 μL/s. Removal of liquids from the well-plates was done by manually inverting the plates.
# Following fixation, the automated imaging was achieved by using aconfocal laser scanning microscope (LSM710, Zeiss) with automated focus detection for three-dimensional image acquisition (1024 px×1024 px×9 px which equals a dimension of 1417 μm×1417 μm×16 μm). For post-acquisition analysis images were imported into IMARIS software (Bitplane) and volume detection or alternatively quantification of the mean fluorescence intensity, as well as Hoechst-stained cell nuclei were automatically counted by using Imaris' spot detection algorithm.
# Cells were seeded with 6000 cells/well in 384-well CellCarrier plates. After overnight incubation, cells were starved in serum-reduced medium (1% FBS with 0.1 mM 2-phosphoascorbate for 24 h). Then, phLFs were treated with TGFβ1 (1 ng/ml) or vehicle, and incubated together with synthesized N23Ps (10 μM) or appropriate vehicle controls. After 72 h of incubation, medium was changed for starvation medium with 1 μg/mL AlexaFluor-637 fluorophore conjugated anti-fibulin 1 antibodies (SantaCruz, Clone C-5, Cat #sc-25281 AF647) and 1 μg/mL Hoechst H33342 (Sigma). Following four hours of incubation, cells were washed three times with PBS and fixed with paraformaldehyde (PFA). Following fixation, the automated imaging was achieved by using a confocal laser scanning microscope (LSM710, Zeiss) with automated focus detection for three-dimensional image acquisition (1024 px×1024 px×9 px which equals a dimension of 1417 μm×1417 μm×16 μm). For post-acquisition analysis images were imported into IMARIS software (Bitplane) and quantified for the mean fluorescence intensity, as well as Hoechst-stained cell nuclei were automatically counted by using Imaris' spot detection algorithm.
# Assessment of ECM inhibition I: Mean fluorescence intensity (MFI) values represented the degree of fibulin-1 ECM deposition in three different IPF-phLFs (n=3). […]
# [2] = system: CXCL8/IL-8; test: Human precision cut lung slices (PCLS) with fibrotic cocktail: IL-8 ELISA; format: cell-based; conditions: living human PCLS
# Protocol: PCLS were prepared as described before (31, 32). Shortly, PCLS were prepared from tumor-free peri-tumor tissue. The lung tissue was inflated with 3% agarose solution and solidified at 4° C. Tissue blocks were cut in μm thick PCLS using a vibration microtome Hyrax V50 (Zeiss). PCLS were cultured in DMEM F-12 medium and treated with a profibrotic cocktail, as described before (31), or vehicle, as well as with small molecules or vehicles for 7 days. After culturing and treatments, supernatants were harvested. PCLS were […] washed in PBS and protein was extracted as previously described (33). Briefly, PCLS were pooled in an Eppendorf tube and lysed in 500 μl ice-cold RIPA buffer (50 mM Tris-CI pH 7.4, 150 mM NaCl, 1% NP40, 0.25% Na-deoxycholate) containing 1× Roche complete mini protease inhibitor cocktail (Roche, Cat. #11697498001). After an incubation of 2 hours rotating at 4° C., the lung slices were removed from the lysates and the protein content was measured.
# Cells were scraped off the plastic dish directly into 200 μl ice-cold RIPA buffer containing 1× Roche complete mini protease inhibitor cocktail. […] CXCL/IL-8 concentrations were determined using Human IL-8/CXCL8 DuoSet ELISA (DY208-05) according to the manufacturer's protocol.
structure (smiles),measurement,setting,value
"CCCCOc1ccccc1NC(=O)/C=C/c1ccc(OC)c(OC)c1 [Example 84, (E)-N-(2-butoxyphenyl)-3-(3,4-dimethoxyphenyl)acrylamide]",inhibition at 10 µM,[1],> 90%
same,CXCL8/IL-8 (ELISA),[2],diminution of pro-fibrotic CXCL8/IL-8
